Measured values from paper PMC10415282, “High resolution cryo-EM and crystallographic snapshots of the actinobacterial two-in-one 2-oxoglutarate dehydrogenase” (Nature Communications, 2023).

Legend:
[1] = target: T1, MsKGD-GarA complex (Mycolicibacterium smegmatis, UniProt A0R2B1); test: crystal structure, […] Å; format: binding; details: Mg2+; 2 mM ThDP, 5 mM MgCl2, pH 8.0; GarA bound, resting conformation
T1 construct: gene kgd; with Glycogen accumulation regulator GarA

[2] = target: T2, OdhA (Corynebacterium glutamicum, UniProt Q8NRC3); test: cryo-EM structure, […] Å; format: binding; details: E2o active site; ThDP-Mg and acetyl-CoA also bound
T2 construct: full length residues 1-1221, E. coli BL21(DE3), N-terminal His6-TEV tag cleaved for cryo-EM (OdhA-His6 kept for SPR); homohexamer, ~800 kDa

Question: For `Cc1ncc(C[n+]2csc(CCOP(=O)(O)OP(=O)(O)O)c2C)c(N)n1` [ThDP], which “crystal structure, 4.6 Å” value [1] is on record?
Answer: The E1o dimers containing the Mg-ThDP compose the blades

Question: `CC(C)(COP(=O)(O)OP(=O)(O)OC[C@H]1O[C@@H](n2cnc3c(N)ncnc32)[C@H](O)[C@@H]1OP(=O)(O)O)[C@@H](O)C(=O)NCCC(=O)NCCSC(=O)CCC(=O)O` [succinyl-CoA] was tested. Which “cryo-EM structure, 2.1 Å” value [2] did it give?
Answer: succinyl-CoA binds to the same domain with its 2-phosphoadenosine moiety superimposable
